Common to all, as to assay type: protein-complex assay
Test [1] deals with T1, cAMP-dependent protein kinase A (Bos taurus, UniProt P00515+P00517+P05131+P31322). The experiment in a line: Inhibition of PKA at 100 uM ATP.
Test [2] addresses T1, cAMP-dependent protein kinase A. The experiment in a line: Inhibitory constant for Protein Kinase A.
The target is the same in test [3]. The experiment in a line: Inhibition of PKA at 2 mM ATP.

As for `N=C(N)NCCOCCn1cnc2c(N)ncnc21`, the IC50 – broadly, the midpoint of a concentration-inhibition curve – in test [1] came to 320 µM; in test [3], 760 µM. The Ki (usually a measure of affinity in units of concentration, obtained from inhibition or displacement) in test [2] was determined as 29 µM.
With `N=C(N)NCCOCCOCCn1cnc2c(N)ncnc21`, the IC50 in test [1] turned out to be 1700 µM; in test [3], 6200 µM. For the same compound, in test [2], the Ki is 150 µM.
The matching figures for `N=C(N)NCCn1cnc2c(N)ncnc21`: 420 µM, 790 µM and 38 µM.
The matching figures for `Nc1ncnc2c1ncn2[C@@H]1O[C@H](CO)[C@@H](O)[C@H]1O` [ADENOSINE]: 160 µM, 1100 µM and 15 µM.

(Values after ChEMBL document CHEMBL1129780, “Adenine-arginine mimetics as bisubstrate analog inhibitors of cAMP-dependent protein kinase” (Bioorg Med Chem Lett, 1996).)
